Structures can show the parent of a compound that is named as a salt. Where two headings read alike, the source gives them in different places.
Columns and labels:
[1] = molecular target: T1, SARS-CoV-2 PLpro (nsp3 1564–1878) (Severe acute respiratory syndrome coronavirus 2, UniProt P0DTD1); assay: biochemical; set-up: FRET-quenched peptide (Pro3) cleavage by PLpro, 10 min pre-incubation, slope over 20 min, normalised to no-compound control; settings: high concentration screen, read-out: % of control remaining
[2] = molecular target: T1, SARS-CoV-2 PLpro (nsp3 1564–1878); assay: biochemical; set-up: FRET-quenched peptide (Pro3) cleavage by PLpro, 10 min pre-incubation, slope over 20 min, normalised to no-compound control; settings: low concentration screen, read-out: % of control remaining

CN(C(=O)CCCOc1ccc2[nH]c(=O)ccc2c1)C1CCCCC1 [Cilostamide]
remaining activity at 3.75 µM ([1]; Well no.=234): 94.4%
remaining activity at 3.75 µM ([1]; Well no.=2142): 98.8%
remaining activity at 1.25 µM ([2]; Well no.=234): 91.5%
remaining activity at 1.25 µM ([2]; Well no.=2142): 95.9%

O=C1CCc2cc(OCCCCc3nnnn3C3CCCCC3)ccc2N1 [Cilostazol]
remaining activity at 3.75 µM ([1]; Well no.=281): 95.3%
remaining activity at 1.25 µM ([2]; Well no.=281): 94.5%

CC(C)NCC(O)c1ccc(N)c(C#N)c1 (stereo not drawn) [Cimaterol]
remaining activity at 3.75 µM ([1]; Well no.=1779): 99.7%
remaining activity at 1.25 µM ([2]; Well no.=1779): 102%

CN/C(=N\CCSCc1nc[nH]c1C)NC#N [Cimetidine]
remaining activity at 3.75 µM ([1]; Well no.=272): 93.4%
remaining activity at 3.75 µM ([1]; Well no.=1875): 99.3%
remaining activity at 3.75 µM ([1]; Well no.=7328): 97.6%
remaining activity at 1.25 µM ([2]; Well no.=272): 88%
remaining activity at 1.25 µM ([2]; Well no.=1875): 96.3%
remaining activity at 1.25 µM ([2]; Well no.=7328): 94.5%

C[C@@H](NCCCc1cccc(C(F)(F)F)c1)c1cccc2ccccc12 [Cinacalcet (hydrochloride)]
remaining activity at 3.75 µM ([1]; Well no.=7426): 104%
remaining activity at 1.25 µM ([2]; Well no.=7426): 104%

C[C@@H](NCCCc1cccc(C(F)(F)F)c1)c1cccc2ccccc12 [Cinacalcet]
remaining activity at 3.75 µM ([1]; Well no.=7389): 82.2%
remaining activity at 1.25 µM ([2]; Well no.=7389): 96.2%

CN(C)CCCSc1ccccc1NC(=O)/C=C/c1ccccc1 [Cinanserin]
remaining activity at 3.75 µM ([1]; Well no.=2094): 101%
remaining activity at 1.25 µM ([2]; Well no.=2094): 101%

C=C[C@H]1CN2CC[C@H]1C[C@@H]2[C@@H](O)c1ccnc2ccccc12 [Cinchonine]
remaining activity at 3.75 µM ([1]; Well no.=7012): 93.6%
remaining activity at 1.25 µM ([2]; Well no.=7012): 97.3%

COc1cc(/C=C/C(=O)N2CCN(CC(=O)N3CCCC3)CC2)cc(OC)c1OC [Cinepazide maleate]
remaining activity at 3.75 µM ([1]; Well no.=5271): 96.6%
remaining activity at 1.25 µM ([2]; Well no.=5271): 95.9%

Nc1c(C(=O)O)c2nc3c(C(=O)O)cccc3oc-2cc1=O [Cinnabarinic Acid]
remaining activity at 3.75 µM ([1]; Well no.=5384): 96.7%
remaining activity at 1.25 µM ([2]; Well no.=5384): 91.8%

O=C(O)/C=C/c1ccccc1 [Cinnamic acid]
remaining activity at 3.75 µM ([1]; Well no.=7011): 105%
remaining activity at 1.25 µM ([2]; Well no.=7011): 104%

CCn1nc(C(=O)O)c(=O)c2cc3c(cc21)OCO3 [Cinoxacin]
remaining activity at 3.75 µM ([1]; Well no.=332): 96.9%
remaining activity at 1.25 µM ([2]; Well no.=332): 98.1%

CC(C)(C[C@H]1CN(S(=O)(=O)c2cccc(C(F)(F)F)c2)c2cc(-c3cc(F)cc(OC(F)F)c3)ccc2O1)C(=O)O [Cintirorgon]
remaining activity at 3.75 µM ([1]; Well no.=8171): 98.6%
remaining activity at 1.25 µM ([2]; Well no.=8171): 99.9%

CC(C)(Oc1ccc(C2CC2(Cl)Cl)cc1)C(=O)O (stereo not drawn) [Ciprofibrate]
remaining activity at 3.75 µM ([1]; Well no.=41): 93.5%
remaining activity at 1.25 µM ([2]; Well no.=41): 92.6%

O=C(O)c1cn(C2CC2)c2cc(N3CCNCC3)c(F)cc2c1=O [Ciprofloxacin]
remaining activity at 3.75 µM ([1]; Well no.=2263): 100%
remaining activity at 1.25 µM ([2]; Well no.=2263): 99%

O=C(c1ccc(OCCCc2c[nH]cn2)cc1)C1CC1 [Ciproxifan (maleate)]
remaining activity at 3.75 µM ([1]; Well no.=7089): 105%
remaining activity at 1.25 µM ([2]; Well no.=7089): 103%

O=C(c1ccc(OCCCc2c[nH]cn2)cc1)C1CC1 [Ciproxifan]
remaining activity at 3.75 µM ([1]; Well no.=5316): 97%
remaining activity at 1.25 µM ([2]; Well no.=5316): 101%

c1ccc(C2CC2)c(OCC2=NCCN2)c1 [Cirazoline hydrochloride]
remaining activity at 3.75 µM ([1]; Well no.=537): 103%
remaining activity at 1.25 µM ([2]; Well no.=537): 106%

CN(C)CCCC1(c2ccc(F)cc2)OCc2cc(C#N)ccc21 (stereo not drawn) [Citalopram hydrobromide]
remaining activity at 3.75 µM ([1]; Well no.=90): 100%
remaining activity at 1.25 µM ([2]; Well no.=90): 95%

CN(C)CCCC1(c2ccc(F)cc2)OCc2cc(C#N)ccc21 (stereo not drawn) [Citalopram]
remaining activity at 3.75 µM ([1]; Well no.=2265): 103%
remaining activity at 1.25 µM ([2]; Well no.=2265): 97.4%

C[N+](C)(C)CCOP(=O)(O)OP(=O)([O-])OC[C@H]1O[C@@H](n2ccc(N)nc2=O)[C@H](O)[C@@H]1O [Citicoline sodium salt]
remaining activity at 3.75 µM ([1]; Well no.=7726): 110%
remaining activity at 1.25 µM ([2]; Well no.=7726): 104%

C[N+](C)(C)CCOP(=O)(O)OP(=O)([O-])OC[C@H]1O[C@@H](n2ccc(N)nc2=O)[C@H](O)[C@@H]1O [Citicoline sodium]
remaining activity at 3.75 µM ([1]; Well no.=375): 101%
remaining activity at 1.25 µM ([2]; Well no.=375): 91.9%

C[N+](C)(C)CCOP(=O)(O)OP(=O)([O-])OC[C@H]1O[C@@H](n2ccc(N)nc2=O)[C@H](O)[C@@H]1O [Citicoline]
remaining activity at 3.75 µM ([1]; Well no.=8931): 88.7%
remaining activity at 1.25 µM ([2]; Well no.=8931): 89%

C/C(=C/C(=O)O)C(=O)O [Citraconic acid]
remaining activity at 3.75 µM ([1]; Well no.=6261): 89.6%
remaining activity at 1.25 µM ([2]; Well no.=6261): 102%

COc1cc(=O)oc(/C=C/C=C/C=C/C(C)=C/[C@]2(C)O[C@H](C)[C@](C)(O)[C@H]2O)c1C [Citreoviridin]
remaining activity at 3.75 µM ([1]; Well no.=3391): 96.6%
remaining activity at 1.25 µM ([2]; Well no.=3391): 92.8%

O=C(O)CC(O)(CC(=O)O)C(=O)O [Citric acid]
remaining activity at 3.75 µM ([1]; Well no.=6195): 103%
remaining activity at 3.75 µM ([1]; Well no.=6298): 104%
remaining activity at 1.25 µM ([2]; Well no.=6195): 104%
remaining activity at 1.25 µM ([2]; Well no.=6298): 103%

CC1=C2C(=CO[C@H](C)[C@H]2C)C(O)=C(C(=O)O)C1=O [Citrinin]
remaining activity at 3.75 µM ([1]; Well no.=3171): 107%
remaining activity at 1.25 µM ([2]; Well no.=3171): 101%

Nc1nc(Cl)nc2c1ncn2[C@H]1C[C@H](O)[C@@H](CO)O1 [Cladribine]
remaining activity at 3.75 µM ([1]; Well no.=5101): 108%
remaining activity at 3.75 µM ([1]; Well no.=8050): 100%
remaining activity at 1.25 µM ([2]; Well no.=5101): 107%
remaining activity at 1.25 µM ([2]; Well no.=8050): 99%

CC[C@H]1OC(=O)[C@H](C)[C@@H](O[C@H]2C[C@@](C)(OC)[C@@H](O)[C@H](C)O2)[C@H](C)[C@@H](O[C@@H]2O[C@H](C)C[C@H](N(C)C)[C@H]2O)[C@](C)(OC)C[C@@H](C)C(=O)[C@H](C)[C@@H](O)[C@]1(C)O [Clarithromycin]
remaining activity at 3.75 µM ([1]; Well no.=2267): 89.2%
remaining activity at 1.25 µM ([2]; Well no.=2267): 89%

COc1cc(N)c(Cl)cc1C(=O)NC1CCN(Cc2ccccc2)CC1 [Clebopride (malate)]
remaining activity at 3.75 µM ([1]; Well no.=7335): 102%
remaining activity at 1.25 µM ([2]; Well no.=7335): 105%

Clc1ccc(Cn2c(CN3CCCC3)nc3ccccc32)cc1 [Clemizole (hydrochloride)]
remaining activity at 3.75 µM ([1]; Well no.=6558): 93.2%
remaining activity at 1.25 µM ([2]; Well no.=6558): 93.9%

Clc1ccc(Cn2c(CN3CCCC3)nc3ccccc32)cc1 [Clemizole hydrochloride]
remaining activity at 3.75 µM ([1]; Well no.=226): 98%
remaining activity at 1.25 µM ([2]; Well no.=226): 98.5%

CC(C)(C)NCC(O)c1cc(Cl)c(N)c(Cl)c1 (stereo not drawn) [Clenbuterol (hydrochloride)]
remaining activity at 3.75 µM ([1]; Well no.=7371): 104%
remaining activity at 1.25 µM ([2]; Well no.=7371): 103%

CC(C)(C)NCC(O)c1cc(Cl)c(N)c(Cl)c1 (stereo not drawn) [Clenbuterol]
remaining activity at 3.75 µM ([1]; Well no.=1743): 102%
remaining activity at 1.25 µM ([2]; Well no.=1743): 102%
